The values that follow are results of earlier work, collected in patent publication US20040096420A1, “Compositions and methods for treating baldness” (priority 2000, published 2004).

The test system of this data set is genetic hair loss. Conditions: dosages from 75 to 100 mg per day; Rushton and Ramsay, 1992; Rushton et al. 1991.

With `CC(=O)S[C@@H]1CC2=CC(=O)CC[C@]2(C)[C@H]2CC[C@@]3(C)[C@@H](CC[C@@]34CCC(=O)O4)[C@H]12` [spironolactone], the “benefit in hair loss” value is listed as “some benefit”.
